Publication PMC9699089 (Pathogens, 2022)
Where two headings read alike, the source gives them in different places.

What was measured:
[1] = Cytotoxicity evaluation, MTT assay; assay type: cell-based, human; conditions: human
Experimental: These cells are a commonly used human hepatocarcinoma-derived cell line that has characteristics similar to those of primary hepatocytes. These cells express many hepatocyte-specific metabolic enzymes, thus enabling the cytotoxicity of tested product metabolites to be evaluated. […] Duplicate assays were performed for each sample. Each well was microscopically examined for precipitate formation before the medium was aspirated from the wells. After aspiration, 100 µL of MTT solution (0.5 mg/mL in medium without FCS) were then added to each well. […] The MTT solution was removed, and DMSO (100 µL) was added to dissolve the resulting blue formazan crystals. Plates were shaken vigorously (300 rpm) for 5 min. The absorbance was measured at 570 nm with 630 nm as reference wavelength in a BIO-TEK ELx808 Absorbance Microplate Reader. DMSO was used as blank and doxorubicin (Sigma Aldrich) as positive control. Cell viability was calculated as percentage of control (cells incubated without compound). The CC50 was determined from the dose-response curve using TableCurve 2D V5.0 software (Systat Software, Palo Alto, CA, USA).

[2] = molecular target: G-rich unfolded single-stranded sequence 24nonG4; assay: Native electrospray mass spectrometry, 24nonG4; assay type: binding; set-up: key to Kd 24nonG4, stoichiometry 2 (Kd2) / Kd 24nonG4, stoichiometry 1 (Kd1): n.b.: no binding detected; <LOQ: binding detected but below limit of quantitation; conditions: 100 mM TMAA, 1 mM KCl; for Kd: read-out: Kd 24nonG4, stoichiometry 1 (Kd1); for Kd 24nonG4, stoichiometry 2 (Kd2): 2:1 ligand:DNA complex
Experimental: (§1) Oligonucleotides were purchased in the lyophilized form from Eurogentec (RP-cartridge purification), and dissolved at 1 mM in pure water. TMAA (1 M) was purchased from Santa Cruz Biotechnology and potassium chloride (purity > 99.99%) from Sigma Aldrich (Sigma Aldrich, Saint-Quentin-Fallavier, France). The sample solutions contained 10 µM oligonucleotide and 10 (for CD only) or 20 µM ligand, in a 100 mM TMAA, 1mM KCl buffer. The solutions were incubated overnight at 4 °C before analysis.
(§2) The sample solutions were injected at a 10 µM strand concentration on an Agilent 6560 DTIMS-Q-TOF instrument (Agilent Technologies, Santa Clara, CA, USA), equipped with a dual-ESI source operated in the negative ion mode in soft conditions. The following parameters were used: fragmentor 320 V, trap fill time 1000 µs, trap release time 200 µs, trap entrance grid delta 2 V. The drift tube was filled with helium and the pressure was fixed at 3.89 ± 0.01 Torr (measured by a capacitance diaphragm gauge CDG-500, Agilent Technologies).
(§3) The MS data were extracted using the IM-MS Browser (v. B.08.00; Agilent Technologies). The peak area intensity of each species at the 5- charge state was extracted from their corresponding m/z range (encompassing potassium adducts), and baseline subtracted. The concentrations of all species (free DNA, free ligands, and complexes) and corresponding dissociation constants were determined as previously described.

[3] = molecular target: human telomeric sequence 24TTG; assay: Native electrospray mass spectrometry, 24TTG; assay type: binding; set-up: key to Kd 24TTG, stoichiometry 1 (Kd1): n.b.: no binding detected; <LOQ: binding detected but below limit of quantitation; conditions: 100 mM TMAA, 1 mM KCl
Experimental: as §1, §2, §3

[4] = system: Plasmodium falciparum CQ-resistant strain W2; assay: In vitro antiplasmodial activity, SYBR Green I fluorescence-based method, strain W2; assay type: cell-based; conditions: CQ-resistant strain W2, 48 h incubation, mean of three independent experiments, read-out: P. falciparum Strains IC50 Values W2
Experimental: The in vitro antiplasmodial activities were tested over concentrations ranging from 39 nM to 40 µM against culture-adapted Plasmodium falciparum reference strains 3D7 and W2. […] These two strains are obtained from the collection of the National Museum of Natural History (Paris, France). The parasites were cultivated in RPMI medium (Sigma Aldrich, Lyon, France) supplemented with 0.5% Albumax I (Life Technologies Corporation, Paisley, UK), hypoxanthine (Sigma Aldrich), and gentamicin (Sigma Aldrich) with human erythrocytes and were incubated at 37 °C in a candle jar, as described previously. The P. falciparum drug susceptibility test was carried out in 96-well flat bottom sterile plates in a final volume of 250 µL. After 48 h incubation period with the drugs, quantities of DNA in treated and control cultures of parasites in human erythrocytes were quantified using the SYBR Green I (Sigma Aldrich) fluorescence-based method. Briefly, after incubation, plates were frozen at -20 °C until use. Plates were then thawed for 2 h at room temperature, and 100 µL of each homogenized culture was transferred to a well of a 96-well flat bottom sterile black plate (Nunc, Inc.) that contained 100 µL of the SYBR Green I lysis buffer (2xSYBR Green, 20 mM Tris base pH 7.5, 5 mM EDTA, 0.008% w/v saponin, 0.08% w/v Triton X-100). […] Plates were incubated for 1 h at room temperature and then read on a fluorescence plate reader (Tecan, Austria) using excitation and emission wavelengths of 485 and 535 nm, respectively.

[5] = system: Trypanosoma 9 and 11 chromosomic sequence FTrypBT (FEBR1T) G-quadruplex; assay: FRET melting assay, FtrypBT; assay type: binding, Trypanosoma brucei brucei; conditions: compound 2 μM, oligonucleotide 0.2 μM, K+ conditions
Procedure, shortened: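 Dual-labelled FAM/TAMRA oligonucleotides (0.2 µM) pre-folded in 10 mM lithium cacodylate pH 7.2, 10 mM KCl, 90 mM LiCl, with 2 µM compound. FAM emission (ex 492/em 516 nm) followed from 25 to 95 °C at 1 °C/min; Tm is the temperature at normalized emission 0.5, compared with and without compound.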

[6] = system: Plasmodium telomeric sequence FPf1T G-quadruplex; assay: FRET melting assay, FPf1T; assay type: binding, Plasmodium falciparum; conditions: compound 2 μM, oligonucleotide 0.2 μM, K+ conditions
Experimental: (§4) These were performed with dual-labeled oligonucleotides mimicking the Plasmodium telomeric sequences FPf1T [FAM-5′(GGGTTTA)3-GGG3′-TAMRA] and FPf8T [FAM-5′(GGGTTCA)3GGG3′-TAMRA], the Trypanosoma 9 and 11 chromosomic sequence FTrypBT (also named FEBR1T) [FAM-5′[…]3′-TAMRA], the human telomeric sequence F21T [FAM-(GGGTTA)3-GGG3′-TAMRA] and the human duplex sequence FdxT [FAM5′-[…]-hexaethyleneglycol-[…]3′-TAMRA] [27, 31, 47]. The oligonucleotides were pre-folded in 10 mM lithium cacodylate buffer (pH 7.2), with 10 mM KCl and 90 mM LiCl (K^+ condition). The FAM emissions were recorded at 516 nm using a 492-nm excitation wavelength in the absence and presence of a single compound as a function of temperature (25 to 95 °C) in 96-well microplates using a Stratagene MX3000P real-time PCR device at a rate of 1 °C∙min-1. Data were normalized between 0 and 1, and the required temperature for half-denaturation of oligonucleotides corresponding to the emission value of 0.5 was taken as the Tm. Each experiment was performed in duplicate with 0.2 µM of labeled oligonucleotide and 2 µM of compound under K^+ condition. For each compound, three independent experiments were carried out.

[7] = system: Plasmodium telomeric sequence FPf8T G-quadruplex; assay: FRET melting assay, FPf8T; assay type: binding, Plasmodium falciparum; conditions: compound 2 μM, oligonucleotide 0.2 μM, K+ conditions
Experimental: as §4

[8] = system: human duplex sequence FdxT; assay: FRET melting assay, duplex control FdxT; assay type: binding; conditions: compound 2 μM, oligonucleotide 0.2 μM, K+ conditions
Experimental: as §4

[9] = 1:1 ligand:DNA complex, read-out: Kd 24TTG, stoichiometry 1 (Kd1)
[10] = 2:1 ligand:DNA complex, read-out: Kd 24TTG, stoichiometry 2 (Kd2)

Compound | CC50 at 72 h [1] | Kd ([2]; 1:1 ligand:DNA complex) | Kd 24nonG4, stoichiometry 2 (Kd2) [2] | Kd [3, 9] | Kd [3, 10] | IC50 [4] | ΔTm FtrypBT [5] | ΔTm FPf1T [6] | ΔTm FPf8T [7] | ΔTm FdxT [8] | Kd 24nonG4, stoichiometry 1 (Kd1) ([2]; 1:1 ligand:DNA complex) | Kd 24TTG, stoichiometry 1 (Kd1) ([3]; 1:1 ligand:DNA complex)
CN(C)CCCCNCc1cc(-c2ccccc2)c2ccc3c(-c4ccccc4)cc(CNCCCCN(C)C)nc3c2n1 [Compound 1c, 2,9-Bis[(4-dimethylaminobutyl)aminomethyl]-4,7-diphenyl-1,10-phenanthroline] | 10.4 ± 0.7 µM | 9 µM | <LOQ | 44 µM | 28 µM | 0.03 ± 0.003 µM | 10.6 °C | 8.9 °C | 10.2 °C | −0.5 °C |  | 
CN(C)CCCCCNCc1cc(-c2ccccc2)c2ccc3c(-c4ccccc4)cc(CNCCCCCN(C)C)nc3c2n1 [Compound 1d, 2,9-Bis[(5-dimethylaminopentyl)aminomethyl]-4,7-diphenyl-1,10-phenanthroline] | 3.35 ± 0.33 µM | 11 µM | <LOQ | 38 µM | 62 µM | 3.51 ± 0.52 µM | 14.7 °C | 18.8 °C | 20.5 °C | 1.8 °C |  | 
c1ccc(-c2cc(CNCCCN3CCCC3)nc3c2ccc2c(-c4ccccc4)cc(CNCCCN4CCCC4)nc23)cc1 [Compound 1l] | 15.2 ± 1.56 µM | 8 µM | <LOQ | 34 µM | 18 µM | 0.03 ± 0.01 µM | 11.6 °C | 15.4 °C | 14.2 °C | 0.7 °C |  | 
c1ccc(-c2cc(CNCCc3ccccn3)nc3c2ccc2c(-c4ccccc4)cc(CNCCc4ccccn4)nc23)cc1 [Compound 1m] | 4.34 ± 0.31 µM |  |  |  |  | 0.07 ± 0.01 µM | 1.8 °C | 1.3 °C | 1.0 °C | −0.2 °C | n.b. | n.b.
